Article PMC4942689, “Deciphering the function of the CNGB1b subunit in olfactory CNG channels” (Scientific Reports, 2016)
Values joined by “and” are separate entries in the source; they are usually repeats but may differ in a detail not shown here. Identical values can stand only once. Like-named read-outs stand apart in the source and are kept apart here.

Assays:
[1] = test system: homotetrameric CNGA2TM (T539M) channels; conditions: cited from earlier work
[2] = target: T1, CNGA2RE:A4RE:B1b (Rattus norvegicus, UniProt A0A8I5ZN27+Q00195+Q64359, R430E/R538E); assay: Concentration-activation relationship and activation by fluorescent ligands, patch-clamp; format: biochemical
T1 construct: expressed in transfected cells; host or cells: Xenopus laevis oocytes (cRNA injection), excised inside-out patches
Description: In order to determine the apparent affinity of the modulatory subunits in heterotetrameric CNGA2:A4:B1b channels for cGMP, we coexpressed each of them with disabled neighbored subunits, generating themselves activation effects only at much higher ligand concentrations. In case of two well-separated current components, this would allow us to determine the EC50 value for the CNGB1b and CNGA4 subunit in functional heterotetrameric channels. Patch-clamp experiments were performed using an Axopatch 200B amplifier (Molecular Devices LLC, CA, U.S.A.) in the inside-out configuration. The patch pipettes for recording of macroscopic currents were pulled from borosilicate glass tubing (outer diameter 2.0 mm, inner diameter 1.0 mm; Hilgenberg GmbH, Germany). […] The patches were formed as pushed inside-out patches. […] Cyclic nucleotide concentration jumps were performed using a double-barreled glass pipette mounted on a piezo-driven device. Intracellular (bath) and extracellular (pipette) solutions contained (mM) 150 KCl, 1 EGTA, 5 Hepes, pH = 7.4 with KOH. […] Currents in the absence of the cyclic nucleotide were subtracted. All patches included in this study were first tested for channel expression in the presence of a saturating ligand concentration. Only patches with large current, i.e. a large number of channels, were included in our statistics. The currents were measured at +10 mV or, if mentioned, at +100 mV. Fits of equations to data points were performed with the 8.1G® software (OriginLab Corporation, Northampton, U.S.A.). Concentration-activation relationships were obtained by relating the actual current amplitude, I, to the maximum current amplitude elicited by a saturating concentration of ligand, Imax, and plotting this ratio as function of the ligand concentration, x.

[3] = target: T2, CNGA2:A4:B1b channels (Rattus norvegicus, UniProt A0A8I5ZN27+Q00195+Q64359); assay: Activation and deactivation time courses after fast concentration jumps; format: biochemical; conditions: +10 mV, monoexponential fit
T2 construct: expressed in transfected cells; host or cells: Xenopus laevis oocytes (cRNA injection 2:1:1), excised inside-out patches
Description: To characterize the contribution of each subunit to the kinetics of channel gating, we also studied activation and deactivation time courses for CNGA2:A4:B1b, CNGA2, CNGA2RE:A4RE:B1b and CNGA2RE:A4:B1b RE channels. Fast concentration jumps from zero to 10 μM cGMP and back to zero were applied with the help of a piezo-driven switch pipette. Activation (Fig. 4a) and deactivation (Fig. 4b) time courses were fitted with a single exponential or the sum of two exponential functions in case of the CNGA2RE:A4RE:B1b channel. The obtained time constants are shown in bar graphs below the traces. In case of the biexponential time courses a mean time constant was obtained according to equation (S1) (Supplementary Information). CNGA2RE:A4RE:B1b channel activation triggered by CNGB1b only is the slowest, followed by that of CNGA4 only in CNGA2RE:A4:B1bRE channels and homotetrameric CNGA2 channels.
Figure 4 Effects of the CNGB1b and CNGA4 subunit on the kinetics of channel activation and deactivation. […]
Patch-clamp experiments were performed using an Axopatch 200B amplifier (Molecular Devices LLC, CA, U.S.A.) in the inside-out configuration. […] The currents were measured at +10 mV or, if mentioned, at +100 mV.

[4] = target: T2, CNGA2:A4:B1b channels; assay: Concentration-activation relationship, inside-out patch-clamp; format: biochemical; conditions: CNGA2:A4:B1b
Description: Patch-clamp experiments were performed using an Axopatch 200B amplifier (Molecular Devices LLC, CA, U.S.A.) in the inside-out configuration. The patch pipettes for recording of macroscopic currents were pulled from borosilicate glass tubing (outer diameter 2.0 mm, inner diameter 1.0 mm; Hilgenberg GmbH, Germany). The initial resistance was 0.7–1.3 MΩ. The patches were formed as pushed inside-out patches. […] Cyclic nucleotide concentration jumps were performed using a double-barreled glass pipette mounted on a piezo-driven device. Intracellular (bath) and extracellular (pipette) solutions contained (mM) 150 KCl, 1 EGTA, 5 Hepes, pH = 7.4 with KOH. […] Currents in the absence of the cyclic nucleotide were subtracted. All patches included in this study were first tested for channel expression in the presence of a saturating ligand concentration. Only patches with large current, i.e. a large number of channels, were included in our statistics. The currents were measured at +10 mV or, if mentioned, at +100 mV.
Fits of equations to data points were performed with the 8.1G® software (OriginLab Corporation, Northampton, U.S.A.). Concentration-activation relationships were obtained by relating the actual current amplitude, I, to the maximum current amplitude elicited by a saturating concentration of ligand, Imax, and plotting this ratio as function of the ligand concentration, x. The concentration-activation data were fitted using the Hill equation
where EC50 is the ligand concentration of half maximum effect and H the Hill coefficient.
In fHcAMP the dye DY547 is coupled to
(b) Concentration-activation relationships of the CNGA2:A4:B1b channels activated by either
The currents were recorded […]

T2 sequence (Q00195 whole entry): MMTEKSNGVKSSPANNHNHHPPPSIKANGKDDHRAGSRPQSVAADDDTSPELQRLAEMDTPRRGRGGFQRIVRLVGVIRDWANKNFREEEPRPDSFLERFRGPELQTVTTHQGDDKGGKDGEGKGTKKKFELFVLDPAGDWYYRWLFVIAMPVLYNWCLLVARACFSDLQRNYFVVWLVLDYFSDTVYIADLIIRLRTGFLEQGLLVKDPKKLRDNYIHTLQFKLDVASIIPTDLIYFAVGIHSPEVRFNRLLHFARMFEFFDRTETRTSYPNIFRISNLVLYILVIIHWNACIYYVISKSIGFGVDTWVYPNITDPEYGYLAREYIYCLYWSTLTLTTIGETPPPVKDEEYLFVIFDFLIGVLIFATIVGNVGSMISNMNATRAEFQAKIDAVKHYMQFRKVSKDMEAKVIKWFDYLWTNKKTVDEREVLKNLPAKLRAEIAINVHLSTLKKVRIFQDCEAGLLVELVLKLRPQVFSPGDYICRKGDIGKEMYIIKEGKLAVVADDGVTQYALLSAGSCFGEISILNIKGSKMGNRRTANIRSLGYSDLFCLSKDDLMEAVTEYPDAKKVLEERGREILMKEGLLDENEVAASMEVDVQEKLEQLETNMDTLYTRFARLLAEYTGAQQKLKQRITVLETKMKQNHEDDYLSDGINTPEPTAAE
T2 sequence (Q64359 whole entry): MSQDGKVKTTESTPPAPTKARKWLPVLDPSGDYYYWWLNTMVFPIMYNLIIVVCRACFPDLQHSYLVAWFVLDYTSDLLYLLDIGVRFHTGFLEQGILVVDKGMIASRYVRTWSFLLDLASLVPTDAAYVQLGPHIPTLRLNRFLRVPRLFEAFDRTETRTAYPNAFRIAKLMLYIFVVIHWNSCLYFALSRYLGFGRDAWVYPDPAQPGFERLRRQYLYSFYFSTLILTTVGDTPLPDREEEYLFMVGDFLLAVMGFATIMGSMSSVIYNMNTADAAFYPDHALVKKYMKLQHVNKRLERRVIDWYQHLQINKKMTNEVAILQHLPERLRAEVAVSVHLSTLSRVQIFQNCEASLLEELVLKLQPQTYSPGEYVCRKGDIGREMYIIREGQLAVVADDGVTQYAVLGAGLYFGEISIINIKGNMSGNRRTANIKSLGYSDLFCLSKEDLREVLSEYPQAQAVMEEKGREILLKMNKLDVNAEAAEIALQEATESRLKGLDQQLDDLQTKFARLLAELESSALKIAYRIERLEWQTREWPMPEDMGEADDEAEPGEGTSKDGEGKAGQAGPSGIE
T2 sequence (A0A8I5ZN27 1-858 isoform A0A8I5ZN27-2): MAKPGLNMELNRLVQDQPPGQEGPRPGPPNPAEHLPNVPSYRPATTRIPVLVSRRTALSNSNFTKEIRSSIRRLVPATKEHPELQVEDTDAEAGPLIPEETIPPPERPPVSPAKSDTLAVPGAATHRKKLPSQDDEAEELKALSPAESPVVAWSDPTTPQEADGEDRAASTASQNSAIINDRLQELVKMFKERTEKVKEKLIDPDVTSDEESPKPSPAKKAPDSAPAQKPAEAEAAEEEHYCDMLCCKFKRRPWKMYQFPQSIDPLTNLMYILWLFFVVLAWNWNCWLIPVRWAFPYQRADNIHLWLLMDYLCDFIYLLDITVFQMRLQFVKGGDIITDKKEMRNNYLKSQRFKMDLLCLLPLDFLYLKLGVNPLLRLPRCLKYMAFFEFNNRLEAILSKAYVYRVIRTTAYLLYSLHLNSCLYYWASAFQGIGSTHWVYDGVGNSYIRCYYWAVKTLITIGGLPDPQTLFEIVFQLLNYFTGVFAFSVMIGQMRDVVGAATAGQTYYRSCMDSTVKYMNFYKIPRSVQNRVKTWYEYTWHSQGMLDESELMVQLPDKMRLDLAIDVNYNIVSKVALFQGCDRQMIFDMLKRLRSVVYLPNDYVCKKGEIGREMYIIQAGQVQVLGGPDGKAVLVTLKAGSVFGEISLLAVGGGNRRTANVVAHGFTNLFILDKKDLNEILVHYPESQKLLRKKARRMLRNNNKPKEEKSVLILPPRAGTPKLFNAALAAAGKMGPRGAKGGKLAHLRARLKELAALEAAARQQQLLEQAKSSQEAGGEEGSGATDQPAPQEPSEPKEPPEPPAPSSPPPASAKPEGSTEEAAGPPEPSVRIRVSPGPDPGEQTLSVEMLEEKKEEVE
T1 sequence (Q00195 whole entry R538E): as the sequence (Q00195 whole entry) above, with R538E counted along it
T1 sequence (Q64359 whole entry R430E): as the sequence (Q64359 whole entry) above, with R430E counted along it
T1 sequence (A0A8I5ZN27 1-858 isoform A0A8I5ZN27-2, stated change not applied): as the sequence (A0A8I5ZN27 1-858 isoform A0A8I5ZN27-2) above

**Q.** Which activation ([1]; 10 μM fcGMP, homotetrameric CNGA2TM) does the source give for 8-[DY-547]-AET-cGMP [fcGMP] here?
**A.** negligible activation

**Q.** And the “activation (I/Imax)” value ([2]; 10 μM fcGMP, normalized to current at 4 mM cGMP)?
**A.** 1.6 ± 0.4%

**Q.** Which EC50 ([1]; CNGA2TM, Equation 1, ref Nache et al., 2012) does the source give for `Nc1nc2c(ncn2[C@@H]2O[C@@H]3COP(=O)(O)O[C@H]3[C@H]2O)c(=O)[nH]1` [cGMP] here?
**A.** 10.4 µM

**Q.** And the deactivation time constant ([3]; concentration jump from 10 μM back to zero)?
**A.** ~ 120 ms

**Q.** What about the activation time constant ([3]; concentration jump from zero to 10 μM) of the same compound?
**A.** ~ 17 ms

**Q.** What about the EC50 ([4]; Equation 1) of the same compound?
**A.** 0.76 µM

**Q.** And the H ([4]; Hill coefficient)?
**A.** 2.0

**Q.** What about the H1 ([2]; Hill coefficient of low affinity component, CNGA2RE:A4RE:B1b, +100 mV) of the same compound?
**A.** 1.2

**Q.** And the “a (contribution of the high affinity component)” value ([2]; fraction, CNGA2RE:A4RE:B1b, Equation 2)?
**A.** 0.07

**Q.** What about the EC50 ([2]; high affinity component (action of CNGB1b), CNGA2RE:A4RE:B1b, Equation 2, +100 mV, read-out: EC50,h) of the same compound?
**A.** 3.6 µM

**Q.** What about the EC50 ([2]; low affinity component, CNGA2RE:A4RE:B1b, Equation 2, +100 mV, read-out: EC50,l) of the same compound?
**A.** 178 µM

**Q.** And the “maximum contribution of CNGB1b to channel activation (a)” value ([2]; of the maximum channel activity generated by all subunits, CNGA2RE:A4RE:B1b)?
**A.** 7.2% and ~ 7%
